Experiments:
Format in all cases: biochemical
IRAK1 = molecular target: T1, IRAK1 (Homo sapiens, UniProt P51617); experiment: RBC HotSpot Kinase Assay, IRAK1
T1 construct: purchased Reaction Biology (RBC HotSpot Kinase Assay)
Source text: (§1) This assay uses the isolated kinase enzyme. This assay is very useful for determining competition of the inhibitor for ATP and/or substrates and for measuring the kinetics of enzyme inhibition. […] Unlike kinase binding assays that measure competition for ATP, the HotSpot Kinase Assay is a functional assay that measures catalytic activity; as such it measures relative functional potency regardless of the mechanism of enzyme inhibition. This assay uses the form of the various enzymes that are easiest to express, which may not necessarily be the form of the enzyme that exist in the cell. (Sometimes the carboxy terminus has been truncated to aid in expression, or, if it is a receptor kinase, the enzyme itself is isolated from the other parts of the receptor that are involved in regulating kinase activity.)
(§2) The reagent used was as follows: Base Reaction buffer; 20 mM Hepes (pH 7.5), 10 mM MgCl2, 1 mM EGTA, 0.01% Brij35, 0.02 mg/ml BSA, 0.1 mM Na3VO4, 2 mM DTT, 1% DMSO. Required cofactors were added individually to each kinase reaction.
(§3) The reaction procedure was as follows: • 1) Substrates were prepared in freshly prepared Reaction Buffer. • 2) Any required cofactors were delivered to the substrate solution above. • 3) Kinase was delivered into the substrate solution and gently mixed. • 4) Compounds were delivered in 100% DMSO into the kinase reaction mixture by Acoustic technology (Echo550; nanoliter range), followed by incubation for 20 min at room temp. • 5) ^33P-ATP was delivered into the reaction mixture to initiate the reaction. • 6) The mixture was incubated for 2 hours at room temperature. • 7) Kinase activity was detected by P81 filter-binding method.

IRAK4 = molecular target: T2, IRAK4 (Homo sapiens, UniProt Q9NWZ3); experiment: RBC HotSpot Kinase Assay, IRAK4; set-up: purchased Reaction Biology (RBC HotSpot Kinase Assay)
T2 sequence (Q9NWZ3 1-460): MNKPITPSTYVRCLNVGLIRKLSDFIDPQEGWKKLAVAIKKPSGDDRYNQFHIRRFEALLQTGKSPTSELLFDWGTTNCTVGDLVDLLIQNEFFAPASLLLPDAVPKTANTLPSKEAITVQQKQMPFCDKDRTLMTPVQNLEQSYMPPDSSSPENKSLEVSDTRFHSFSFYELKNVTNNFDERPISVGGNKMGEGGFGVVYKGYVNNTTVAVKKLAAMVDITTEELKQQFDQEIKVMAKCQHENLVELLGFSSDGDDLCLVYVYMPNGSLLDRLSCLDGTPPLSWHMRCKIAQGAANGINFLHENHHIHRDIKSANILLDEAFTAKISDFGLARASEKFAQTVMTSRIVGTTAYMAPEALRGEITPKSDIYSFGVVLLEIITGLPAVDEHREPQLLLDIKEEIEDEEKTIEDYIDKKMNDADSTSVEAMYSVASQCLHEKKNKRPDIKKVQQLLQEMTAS
Source text: as §1, §2, §3

FLT3 = molecular target: T3, FLT3 (Homo sapiens, UniProt P36888); experiment: RBC HotSpot Kinase Assay, FLT3
T3 construct: purchased Reaction Biology (RBC HotSpot Kinase Assay)
T3 sequence (P36888 564-958 limits assumed): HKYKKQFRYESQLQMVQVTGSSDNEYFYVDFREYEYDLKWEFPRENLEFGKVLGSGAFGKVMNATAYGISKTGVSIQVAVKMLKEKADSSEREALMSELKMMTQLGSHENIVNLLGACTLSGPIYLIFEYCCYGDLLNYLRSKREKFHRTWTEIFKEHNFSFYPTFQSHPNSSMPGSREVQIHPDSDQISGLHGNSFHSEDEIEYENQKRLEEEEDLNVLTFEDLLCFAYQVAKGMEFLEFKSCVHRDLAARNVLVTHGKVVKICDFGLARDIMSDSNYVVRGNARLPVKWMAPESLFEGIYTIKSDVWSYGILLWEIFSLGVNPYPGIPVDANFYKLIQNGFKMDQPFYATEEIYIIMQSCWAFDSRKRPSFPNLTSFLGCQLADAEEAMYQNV
Source text: as §1, §2, §3

T1 sequence (P51617 whole entry): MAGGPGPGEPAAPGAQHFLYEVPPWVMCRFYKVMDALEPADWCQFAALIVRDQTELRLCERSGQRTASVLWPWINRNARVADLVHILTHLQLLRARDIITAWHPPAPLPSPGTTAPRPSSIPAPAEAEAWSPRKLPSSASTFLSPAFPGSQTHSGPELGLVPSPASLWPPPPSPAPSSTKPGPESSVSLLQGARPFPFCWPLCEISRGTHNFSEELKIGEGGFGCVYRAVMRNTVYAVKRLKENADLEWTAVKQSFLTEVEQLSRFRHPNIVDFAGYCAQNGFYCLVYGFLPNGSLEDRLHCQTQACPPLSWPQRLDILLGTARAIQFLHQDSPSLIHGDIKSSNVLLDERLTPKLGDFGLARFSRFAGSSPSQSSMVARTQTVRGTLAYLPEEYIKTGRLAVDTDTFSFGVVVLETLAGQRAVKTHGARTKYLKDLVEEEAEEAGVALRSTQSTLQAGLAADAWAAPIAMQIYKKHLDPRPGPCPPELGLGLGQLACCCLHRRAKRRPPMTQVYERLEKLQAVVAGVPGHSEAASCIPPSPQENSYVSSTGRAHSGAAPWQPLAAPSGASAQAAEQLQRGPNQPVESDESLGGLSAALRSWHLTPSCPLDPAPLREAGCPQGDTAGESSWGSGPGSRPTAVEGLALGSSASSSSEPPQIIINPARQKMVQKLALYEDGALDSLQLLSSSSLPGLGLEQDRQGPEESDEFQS

Q: Which IC50 (IRAK1) does the source give for `Cn1cc(-c2ccc3ncc(-c4cccc(NC5CC6(CNC6)C5)n4)n3n2)cn1` [Compound 35, N-(6-(6-(1-methyl-1H-pyrazol-4-yl)imidazo[1,2-b]pyridazin-3-yl)pyridin-2-yl)-2-azaspiro[3.3]heptan-6-amine] here?
A: The IC50 was 2820 nM.

Q: What about the IC50 (IRAK4) of the same compound?
A: The IC50 was 126 nM.

Q: What about the IC50 (FLT3) of the same compound?
A: Its IC50 is 3 nM.

Q: Which IC50 (IRAK1) does the source give for `CC(C)Oc1cnn2c(-c3cccc(N[C@H]4CNC[C@@H]4F)n3)cnc2c1` [Compound 115, N-((3S,4S)-4-fluoropyrrolidin-3-yl)-6-(7-isopropoxyimidazo[1,2-b]pyridazin-3-yl)pyridin-2-amine] here?
A: The IC50 was 3190 nM.

Q: What about the IC50 (IRAK4) of the same compound?
A: Its IC50 is 323 nM.

Q: And the IC50 (FLT3)?
A: The IC50 was 9 nM.

Q: What does the source list for `c1cc(NC2CC3(CNC3)C2)nc(-c2cnc3ccc(-c4cnn(C5CNC5)c4)nn23)c1` [Compound 37, N-(6-(6-(1-(azetidin-3-yl)-1H-pyrazol-4-yl)imidazo[1,2-b]pyridazin-3-yl)pyridin-2-yl)-2-azaspiro[3.3]heptan-6-amine]?
A: IC50 (IRAK1): > 10000 nM; IC50 (IRAK4): 4320 nM; IC50 (FLT3): 7 nM

Q: With `FC1(F)CNCC1Nc1cccc(-c2cnc3ccc(-c4cnn5c4CCCC5)nn23)n1` (stereo not drawn) [Compound 59, N-(4,4-difluoropyrrolidin-3-yl)-6-(6-(4,5,6,7-tetrahydropyrazolo[1,5-a]pyridin-3-yl)imidazo[1,2-b]pyridazin-3-yl)pyridin-2-amine] as the compound, how does the IC50 (IRAK1) read?
A: Its IC50 is 621 nM.

Q: What about the IC50 (IRAK4) of the same compound?
A: The IC50 was 12 nM.

Q: And the IC50 (FLT3)?
A: Its IC50 is 2 nM.

Q: Which IC50 (IRAK1) does the source give for `c1ccc(-n2cc(-c3ccc4ncc(-c5cccc(NC6CC7(CNC7)C6)n5)n4n3)cn2)cc1` [Compound 33, N-(6-(6-(1-phenyl-1H-pyrazol-4-yl)imidazo[1,2-b]pyridazin-3-yl)pyridin-2-yl)-2-azaspiro[3.3]heptan-6-amine] here?
A: The IC50 was > 10000 nM.

Q: What about the IC50 (IRAK4) of the same compound?
A: The IC50 was 3360 nM.

Q: And the IC50 (FLT3)?
A: Its IC50 is 16 nM.

Q: What does the source list for `c1cc(N[C@@H]2CCCNC2)nc(-c2cnc3ccc(-c4cnn(C5CC5)c4)nn23)c1` [Compound 17, (R)-6-(6-(1-cyclopropyl-1 H-pyrazol-4-yl)imidazo[1,2-b]pyridazin-3-yl)-N-(piperidin-3-yl)pyridin-2-amine]?
A: IC50 (IRAK1): 1820 nM; IC50 (IRAK4): 9 nM; IC50 (FLT3): < 0.5 nM

Q: With `c1ccc(-n2cc(-c3ccc4ncc(-c5cccc(NC6CCNC6)n5)n4n3)cn2)cc1` (stereo not drawn) [Compound 28, 6-(6-(1-phenyl-1H-pyrazol-4-yl)imidazo[1,2-b]pyridazin-3-yl)-N-(pyrrolidin-3-yl)pyridin-2-amine] as the compound, how does the IC50 (IRAK1) read?
A: The IC50 was 6580 nM.

Q: What about the IC50 (IRAK4) of the same compound?
A: The IC50 was 2360 nM.

Q: What about the IC50 (FLT3) of the same compound?
A: The IC50 was 2 nM.

Q: What does the source list for `Cn1cc(-c2ccc3ncc(-c4cccc(N[C@H]5CNC[C@@H]5C(F)(F)F)n4)n3n2)cn1` [Compound 11, 6-(6-(1-methyl-1 H-pyrazol-4-yl)imidazo[1,2-b]pyridazin-3-yl)-N-((3R,4S)-4-(trifluoromethyl)pyrrolidin-3-yl)pyridin-2-amine]?
A: IC50 (IRAK1): 860 nM; IC50 (IRAK4): 21 nM; IC50 (FLT3): < 0.5 nM

Q: For `COc1cc2ncc(-c3cccc(N[C@@H]4CCCNC4)n3)n2nc1N1CCCC1=O` [Compound 137, (R)-1-(7-methoxy-3-(6-(piperidin-3-ylamino)pyridin-2-yl)imidazo[1,2-b]pyridazin-6-yl)pyrrolidin-2-one], which IC50 (IRAK1) is on record?
A: The IC50 was > 10000 nM.

Q: What about the IC50 (IRAK4) of the same compound?
A: Its IC50 is 1980 nM.

Q: What about the IC50 (FLT3) of the same compound?
A: Its IC50 is 13 nM.

Q: For `F[C@H]1CNC[C@@H]1Nc1cccc(-c2cnc3ccc(N4CCCCC4)nn23)n1` [Compound 94, N-((3S,4S)-4-fluoropyrrolidin-3-yl)-6-(6-(piperidin-1-yl)imidazo[1,2-b]pyridazin-3-yl)pyridin-2-amine], which IC50 (IRAK1) is on record?
A: The IC50 was 1050 nM.

Q: What about the IC50 (IRAK4) of the same compound?
A: The IC50 was 33 nM.

Q: What about the IC50 (FLT3) of the same compound?
A: Its IC50 is 6 nM.

Q: For `c1cc(NC2CC3(CNC3)C2)nc(-c2cnc3ccc(-c4cnn5ccccc45)nn23)c1` [Compound 61, N-(6-(6-(pyrazolo[1,5-a]pyridin-3-yl)imidazo[1,2-b]pyridazin-3-yl)pyridin-2-yl)-2-azaspiro[3.3]heptan-6-amine], which IC50 (IRAK1) is on record?
A: Its IC50 is 349 nM.

Q: What about the IC50 (IRAK4) of the same compound?
A: Its IC50 is 26 nM.

Q: And the IC50 (FLT3)?
A: Its IC50 is 1 nM.

Q: What does the source list for `FC1(F)CNCC1Nc1cccc(-c2cnc3ccc(-c4cnn5ncccc45)nn23)n1` (stereo not drawn) [Compound 54, N-(4,4-difluoropyrrolidin-3-yl)-6-(6-(pyrazolo[1,5-b]pyridazin-3-yl)imidazo[1,2-b]pyridazin-3-yl)pyridin-2-amine]?
A: IC50 (IRAK1): 1690 nM; IC50 (IRAK4): 8 nM; IC50 (FLT3): < 0.5 nM

Q: For `CC(C)(O)Cn1cc(-c2ccc3ncc(-c4cccc(NC5CNCC5(F)F)n4)n3n2)cn1` (stereo not drawn) [Compound 24, 1-(4-(3-(6-((4,4-difluoropyrrolidin-3-yl)amino)pyridin-2-yl)imidazo[1,2-b]pyridazin-6-yl)-1H-pyrazol-1-yl)-2-methylpropan-2-ol], which IC50 (IRAK1) is on record?
A: Its IC50 is 1640 nM.

Q: And the IC50 (IRAK4)?
A: The IC50 was 261 nM.

Q: And the IC50 (FLT3)?
A: Its IC50 is 17 nM.

Q: How did the IC50 (IRAK1) turn out when `c1cc(NC2CCC3(CNC3)C2)nc(-c2cnc3ccc(-c4cn[nH]c4)nn23)c1` (stereo not drawn) [Compound 45, N-(6-(6-(1H-pyrazol-4-yl)imidazo[1,2-b]pyridazin-3-yl)pyridin-2-yl)-2-azaspiro[3.4]octan-6-amine] was run?
A: Its IC50 is 37 nM.

Q: And the IC50 (IRAK4)?
A: The IC50 was 8 nM.

Q: And the IC50 (FLT3)?
A: Its IC50 is < 0.5 nM.

Q: With `CN(C)c1ccc2ncc(-c3cccc(N[C@H]4CNC[C@@H]4F)n3)n2n1` [Compound 90, 3-(6-(((3S,4S)-4-fluoropyrrolidin-3-yl)amino)pyridin-2-yl)-N,N-dimethylimidazo[1,2-b]pyridazin-6-amine] as the compound, how does the IC50 (IRAK1) read?
A: Its IC50 is 6290 nM.

Q: What about the IC50 (IRAK4) of the same compound?
A: Its IC50 is 61 nM.

Q: And the IC50 (FLT3)?
A: The IC50 was 4 nM.

Q: `F[C@H]1CNC[C@@H]1Nc1cccc(-c2cnc3ccc(N4CCC4)nn23)n1` [Compound 93, 6-(6-(azetidin-1-yl)imidazo[1,2-b]pyridazin-3-yl)-N-((3S,4S)-4-fluoropyrrolidin-3-yl)pyridin-2-amine] was tested. Which IC50 (IRAK1) did it give?
A: The IC50 was 2680 nM.

Q: And the IC50 (IRAK4)?
A: Its IC50 is 39 nM.

Q: And the IC50 (FLT3)?
A: Its IC50 is 4 nM.

Q: Which results are given for `Cn1cc(-c2ccc3ncc(-c4cccc(NC5CCNC5)n4)n3n2)cn1` (stereo not drawn) [Compound 30, 6-(6-(1-methyl-1H-pyrazol-4-yl)imidazo[1,2-b]pyridazin-3-yl)-N-(pyrrolidin-3-yl)pyridin-2-amine]?
A: IC50 (IRAK1): 565 nM; IC50 (IRAK4): 104 nM; IC50 (FLT3): 2 nM

Q: Which results are given for `F[C@@H]1CNCC[C@H]1Nc1cccc(-c2cnc3ccc(C4CC4)nn23)n1` [Compound 73, 6-(6-cyclopropylimidazo[1,2-b]pyridazin-3-yl)-N-((3R,4R)-3-fluoropiperidin-4-yl)pyridin-2-amine]?
A: IC50 (IRAK1): 1830 nM; IC50 (IRAK4): 292 nM; IC50 (FLT3): 10 nM

Q: With `Cn1cc(-c2ccc3ncc(-c4cccc(N[C@@H]5CCCNC5)n4)n3n2)cn1` [Compound 15, (R)-6-(6-(1-methyl-1H-pyrazol-4-yl)imidazo[1,2-b]pyridazin-3-yl)-N-(piperidin-3-yl)pyridin-2-amine] as the compound, how does the IC50 (IRAK1) read?
A: Its IC50 is 226 nM.

Q: And the IC50 (IRAK4)?
A: Its IC50 is 13 nM.

Q: What about the IC50 (FLT3) of the same compound?
A: Its IC50 is < 0.5 nM.

Q: Which results are given for `FC(F)n1cc(-c2ccc3ncc(-c4cccc(N[C@H]5CCNC[C@@H]5F)n4)n3n2)cn1` [Compound 6, 6-(6-(1-(difluoromethyl)-1 H-pyrazol-4-yl)imidazo[1,2-b]pyridazin-3-yl)-N-((3S,4S)-3-fluoropiperidin-4-yl)pyridin-2-amine]?
A: IC50 (IRAK1): 296 nM; IC50 (IRAK4): 62 nM; IC50 (FLT3): 4 nM

Q: What does the source list for `F[C@H]1CNC[C@@H]1Nc1cccc(-c2cnc3ccc(NC4CCCCC4)nn23)n1` [Compound 92, N-cyclohexyl-3-(6-(((3S,4S)-4-fluoropyrrolidin-3-yl)amino)pyridin-2-yl)imidazo[1,2-b]pyridazin-6-amine]?
A: IC50 (IRAK1): 1640 nM; IC50 (IRAK4): 1080 nM; IC50 (FLT3): 78 nM

Q: `c1cc(NC2CC3(CCNC3)C2)nc(-c2cnc3ccc(-c4cn[nH]c4)nn23)c1` (stereo not drawn) [Compound 38, N-(6-(6-(1H-pyrazol-4-yl)imidazo[1,2-b]pyridazin-3-yl)pyridin-2-yl)-6-azaspiro[3.4]octan-2-amine] was tested. Which IC50 (IRAK1) did it give?
A: The IC50 was 23 nM.

Q: What about the IC50 (IRAK4) of the same compound?
A: Its IC50 is 2 nM.

Q: And the IC50 (FLT3)?
A: The IC50 was < 0.5 nM.
